Assay results as given in patent US20110269699A1, “CANCER THERAPY” (priority 2008, published 2011).
Where “and” joins values, the source holds several entries; their conditions need not be identical. Equal values may be shown once.

What was measured:
Eμ-myc lymphomas [1] = test: In vivo apoptosis assay; parameters: species or system C57BL/6 mice; details: all four Eμ-myc lymphomas in lymph nodes; 5.6 mg/kg i.v.; 24-h time course
Method: (§1) For in vivo apoptosis assays, C57BL/6 mice were injected with Eμ-myc lymphomas (5×10^5 cells per animal) and after 10 to 15 days on which lymph nodes became well-palpable romidepsin (5.6 mg/kg) was administered i.v. After the indicated time points, mice were sacrificed and cells were harvested from brachial lymph nodes for fluorescence-activated cell sorting-based assays to measure apoptotic signaling (Lindemann et al., Proc. Nat. Acad. Sci. USA 104:8071-8078, 2007). To assess therapeutic efficacy of romidepsin, C57BL/6 mice were injected with Eμ-myc lymphomas of the indicated genotypes i.v. (5×10^5 cells per animal). Peripheral WBC counts were then monitored until they exceeded 13×10^3/μL (Sysmex Hematology Analyzer K-1000) and romidepsin was administered at 5.6 mg/kg i.v. once every 4 days for a total of four injections. […] Mice in the control cohort received the corresponding amount of vehicle. Cohorts consisted of 8 to 11 mice each, 2 to 3 independently derived lymphomas per genotype. Peripheral WBC counts and body weights were recorded weekly. On signs of major distress or when lymphomas were relapsing as indicated by enlarged brachioaxial lymph nodes, mice were euthanized and a necropsy was done. For analysis of therapeutic efficacy, tumor-induced mortality “events” were recorded. Kaplan-Meier analysis was done and comparisons made using the log-rank (Mantel-Cox) test (MedCalc software version 8.0.2.0).

[2] = system: 226Eμ-myc/Bcl-2 lymphomas; test: In vivo apoptosis assay; parameters: species or system C57BL/6 mice; details: 5.6 mg/kg i.v.; even at 36 h
Method: as §1

Eμ-myc/Bcl-2 lymphomas [3] = test: In vivo apoptosis assay; parameters: species or system C57BL/6 mice; details: all four Eμ-myc/Bcl-2 lymphomas; 5.6 mg/kg i.v.; 24 h after exposure
Method: as §1

[4] = system: 226Eμ-myc/Bcl-2 lymphomas; test: In vitro cell death analysis, time course; assay type: cell-based, mouse; details: 3.0 nmol/L; up to 72 h
[5] = system: 4242Eμ-myc/Bcl-2 lymphomas; test: In vitro cell death analysis, time course; assay type: cell-based, mouse; details: 3.0 nmol/L; up to 72 h
Source text: (§2) The primary function of prosurvival Bcl-2 proteins is to inhibit the activity of Bak and Bax proteins and thereby protect the mitochondrial membrane from damage (Cory et al., Nat. Rev. Cancer 2:647-656, 2002). To determine if the induction of apoptosis mediated by romidepsin in 4242Eμ-myc/Bcl-2 and 229Eμ-myc/Bcl-2 lymphomas was via perturbation of the mitochondrial membrane or through some other mechanism, HDACi-induced mitochondrial outer membrane permeabilization (MOMP) was quantitated by staining with tetramethylrhodamine ethyl ester (Molecular Probes).
(§3) […] Viability of cells as measured by trypan blue exclusion assay, propidium iodide uptake, Annexin V staining, cell cycle analysis, or tetramethylrhodamine ethyl ester staining were done as described (Lindemann et al., Proc. Nat. Acad. Sci. USA 104:8071-8078, 2007).

[6] = system: acetylated histones H3 and H4; test: Western blot analysis of histone acetylation status; assay type: cell-based, mouse; details: for histone acetylation: 3.0 nmol/L, 2, 8, 24 h
Method: Eμ-myc lymphoma cells were lysed in lysis buffer [0.15 mol/L NaCl, 10 mmol/L Tris-HCl (pH 7.4), 5 μmol/L EDTA, 1% Triton X-100] supplemented with protease inhibitors (leupeptin, pepstatin, and phenylmethylsulfonyl fluoride; Sigma-Aldrich) as described previously (Lindemann et al., Proc. Nat. Acad. Sci. USA 104:8071-8078, 2007). Proteins (30-50 μg) were separated on 10% or 15% SDS polyacrylamide gels electroblotted onto Immobilon-P […] membranes (Millipore). Membranes were incubated with the following antibodies: anti-mouse Bcl-2 (BD PharMingen), anti-mouse Bcl-XL (BD PharMingen), anti-mouse Bcl-w (Chemicon Australia), anti-mouse Mcl-1 (Rockland), anti-mouse A1 (Sapphire Biosciences), anti-Flag tag (Sigma-Aldrich), anti-acetylated histone H3 and antiacetylated histone H4 (Upstate Biosystems), anti-β actin (Sigma-Aldrich), and anti-tubulin (Sigma-Aldrich) overnight at 4° C. followed by subsequent incubation with horseradish peroxidase-conjugated secondary antibodies (DAKO) Immunoreactive bands were visualized by enhanced chemiluminescence (Amersham).

[7] = system: 4242Eμ-myc/Bcl-2 lymphomas; test: Cell cycle analysis of Eμ-myc/Bcl-2 cells treated with HDACi; assay type: cell-based, mouse; details: 4242/Bcl-2
Method: (§4) Next, the cell cycle profiles of Eμ-myc/Bcl-2 lymphomas treated with oxamflatin and romidepsin over 3 days were assessed.
as §3

[8] = system: 226Eμ-myc/Bcl-2 lymphomas; test: as above; assay type: cell-based, mouse; details: 226/Bcl-2
Method: as §4, §3

Eμ-myc lymphomas [9] = test: In vitro cell death analysis (propidium iodide staining, loss of MOMP); assay type: cell-based, mouse
Method: (§5) Three different primary Eμ-myc lymphomas overexpressing Bcl-2 and control vector-transduced Eμ-myc cells were tested for sensitivity to the histone deacetylase inhibitors (HDACi) oxamflatin and romidepsin.
as §2, §3

Eμ-myc/Bcl-2 lymphomas [10] = test: as above; assay type: cell-based, mouse; details: 24-h dose-response assay; Bcl-2 overexpressing
Method: as §5, §2, §3

[11] = system: 102Eμ-myc/Bcl-2 lymphomas; test: In vitro cell death analysis, time course; assay type: cell-based, mouse; details: 3.0 nmol/L; up to 72 h

## (1S,4S,10S,16E,21R)-7-[(2Z)-ethylidene]-4,21-diisopropyl-2-oxa-12,13-dithia-5,8,20,23-tetraazabicyclo[8.7.6]tricos-16-ene-3,6,9,19,22-pentanone [Romidepsin]
Eμ-myc lymphomas [1]
  apoptosis in vivo (outer cell membrane damage, DNA fragmentation): sensitive to romidepsin
[2]
  apoptosis in vivo: remained insensitive
Eμ-myc/Bcl-2 lymphomas [3]
  apoptosis in vivo: resistant to romidepsin-induced apoptosis
[4]
  cell killing in time course: remained relatively insensitive
[5]
  cell killing in time course: could kill
[6]; 226Eμ-myc/Bcl-2 lymphomas
  histone acetylation: equivalent increase in histone acetylation
[6]; 4242Eμ-myc lymphomas, 3.0 nmol/L romidepsin, 0.1 mmol/L oxamflatin, 24-h time course
  acetylation of histones H3 and H4: induced equivalent acetylation of histones H3 and H4
[6]; 4242Eμ-myc/Bcl-2 lymphomas
  histone acetylation: equivalent increase in histone acetylation
[7]; 24 hr
  % G1: 66.3%
  % G2/M: 11.4%
  % S phase: 2.1%
  % subG1: 19.3%
[7]; 48 hr
  % G1: 53.2%
  % G2/M: 8.5%
  % S phase: 4.6%
  % subG1: 27.2%
[7]; 72 hr
  % G1: 34.8%
  % G2/M: 7.1%
  % S phase: 3.0%
  % subG1: 55.3%
[8]; 24 hr
  % G1: 48.6%
  % G2/M: 26.6%
  % S phase: 16.4%
  % subG1: 3.7%
[8]; 48 hr
  % G1: 52.3%
  % G2/M: 27.1%
  % S phase: 13.5%
  % subG1: 3.7%
[8]; 72 hr
  % G1: 78.3%
  % G2/M: 8.7%
  % S phase: 2.5%
  % subG1: 7.8%
Eμ-myc lymphomas [9]; 24-h dose-response assay
  cell killing (outer cell membrane damage, loss of mitochondrial membrane potential): could effectively kill
Eμ-myc lymphomas [9]; 24-h treatment
  concentration of HDACi required to kill ˜70% of Eμ-myc lymphomas following 24-h treatment: 3.0 nmol/L and 3 nmol/L
Eμ-myc/Bcl-2 lymphomas [10]
  cell killing (outer cell membrane damage, loss of mitochondrial membrane potential): but not Eμ-myc/Bcl-2 lymphomas
[11]
  cell killing in time course: remained relatively insensitive
